Biological target: streptavidin resin column (Streptomyces avidinii, UniProt P22629)
Experiment: Purification with streptavidin resin column in the presence of additives (solubility enhancing agent study)
Conditions: eluent PBS
Protocol: To an Eppendorf vial were added 56.6 μg precursor 4 (56.6 μL, 1.0 mg/mL, EtOH), 5 μL AcOH, Na^125I (18.5 MBq or 500 μCi, pH 8˜11 in aqueous NaOH) and iodogen (50 μL, 0.2 mg/mL in EtOH), subsequently. The reaction mixture was allowed to sit at room temperature for 20 minutes, with occasional swirling. After quenching with 100 μL of Na2S2O3 (0.1 M aq.), the mixture was diluted with 100 μL of EtOH then added to the binding buffer tested as described below.
A streptavidin resin column was packed using 1.6 mL of resin slurry (0.8 mL of actual resin) as described previously and washed with the appropriate binding buffer (4.0 mL, 5 cv). An 80 μL aliquot of the above radiolabeling mixture was diluted with the appropriate binding buffer (920 μL) and mixed for 10 minutes before loading onto streptavidin column. After incubation for 20 minutes, radiolabeled product was eluted off the column with binding buffer (three 0.5 mL fractions collected). All fractions (including a forerun fraction collected while loading the reaction mixture onto column) were subjected to HPLC analysis before being combined.

Sequence of streptavidin resin column (P22629 25-183): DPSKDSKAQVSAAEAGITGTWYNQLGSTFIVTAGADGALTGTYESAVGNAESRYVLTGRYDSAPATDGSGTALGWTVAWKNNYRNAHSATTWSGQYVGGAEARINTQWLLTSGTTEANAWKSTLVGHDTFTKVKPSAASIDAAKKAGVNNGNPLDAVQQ

SMILES: O=C(OCc1ccccc1)c1cccc([125I])c1 [Compound 125I-3IBABn]
- Activity left on column (10% HP-β-CD w/v): 16%
- Activity left on column (20% HP-β-CD w/v): 13%
- Activity left on column (40% HP-β-CD w/v): 7%

Reference: patent US8927732B2, “Biotin stannane for HPLC-free radioiodination” (General Electric Company, priority 2012, dated 2015)
